Test results as given in the CheMixHub viscosity set.
± gives the uncertainty stated by the source.

Test: xn = mol fraction of the nth substance listed

CC(C)(C)O + Cc1ccccc1
viscosity [mPa·s]
Conditions	298.15 K	303.15 K	308.15 K	313.15 K	318.15 K
101 kPa, x2 = 0.1121	2.432 ± 0.085	1.991 ± 0.07	1.63 ± 0.058	1.282 ± 0.047	1.05 ± 0.039
101 kPa, x2 = 0.1785	1.717 ± 0.061	1.462 ± 0.053	1.245 ± 0.045	1.027 ± 0.038	0.8744 ± 0.033
101 kPa, x2 = 0.3151	1.113 ± 0.041	0.9909 ± 0.037	0.8824 ± 0.034	0.7677 ± 0.03	0.6837 ± 0.027
101 kPa, x2 = 0.3919	0.9507 ± 0.036	0.8583 ± 0.033	0.7749 ± 0.03	0.6855 ± 0.027	0.6188 ± 0.025
101 kPa, x2 = 0.4958	0.7975 ± 0.031	0.7306 ± 0.029	0.6693 ± 0.027	0.6025 ± 0.024	0.552 ± 0.023
101.33 kPa, x2 = 0.1003	–	1.981 ± 0.031	1.622 ± 0.026	1.328 ± 0.021	–
101.33 kPa, x2 = 0.1723	–	1.455 ± 0.023	1.239 ± 0.02	1.059 ± 0.017	–
101.33 kPa, x2 = 0.3109	–	0.986 ± 0.016	0.878 ± 0.015	0.781 ± 0.013	–
101.33 kPa, x2 = 0.3886	–	0.854 ± 0.014	0.771 ± 0.013	0.696 ± 0.012	–
101.33 kPa, x2 = 0.4942	–	0.727 ± 0.013	0.666 ± 0.012	0.611 ± 0.011	–
101.33 kPa, x2 = 0.6059	–	0.644 ± 0.011	0.594 ± 0.011	0.548 ± 0.01	–
101.33 kPa, x2 = 0.7118	–	0.588 ± 0.011	0.547 ± 0.01	0.51 ± 0.007	–
101.33 kPa, x2 = 0.8135	–	0.549 ± 0.01	0.518 ± 0.01	0.486 ± 0.007	–
101.33 kPa, x2 = 0.9107	–	0.521 ± 0.01	0.49 ± 0.007	0.46 ± 0.007	–

Nc1ccccc1 + CO
298.15 K, 101 kPa
Conditions	viscosity [mPa·s]
x1 = 0.0473	0.5608 ± 0.0054
x1 = 0.1001	0.5768 ± 0.0056
x1 = 0.1604	0.6103 ± 0.0058
x1 = 0.2292	0.6583 ± 0.0062
x1 = 0.3082	0.7229 ± 0.0068
x1 = 0.4007	0.8404 ± 0.0078
x1 = 0.5096	1.023 ± 0.0093
x1 = 0.6406	1.322 ± 0.012
x1 = 0.8005	1.867 ± 0.017

CC(C)(C)O + CC#N
viscosity [mPa·s]
Conditions	298.15 K	303.15 K	308.15 K	313.15 K
101 kPa, x1 = 0.0566	0.3785 ± 0.0041	0.3701 ± 0.004	0.3589 ± 0.0039	–
101 kPa, x1 = 0.1198	0.4021 ± 0.0043	0.3935 ± 0.0042	0.3794 ± 0.0041	–
101 kPa, x1 = 0.1887	0.4346 ± 0.0046	0.4229 ± 0.0045	0.4056 ± 0.0043	–
101 kPa, x1 = 0.2685	0.4818 ± 0.005	0.461 ± 0.0048	0.4406 ± 0.0046	–
101 kPa, x1 = 0.3568	0.5555 ± 0.0056	0.5226 ± 0.0053	0.4902 ± 0.0051	–
101 kPa, x1 = 0.4511	0.6735 ± 0.0067	0.6105 ± 0.0061	0.5659 ± 0.0057	–
101 kPa, x1 = 0.5606	0.9097 ± 0.0087	0.8128 ± 0.0079	0.7495 ± 0.0073	–
101 kPa, x1 = 0.6858	1.341 ± 0.012	1.18 ± 0.011	1.058 ± 0.01	–
101 kPa, x1 = 0.831	2.213 ± 0.02	1.884 ± 0.017	1.63 ± 0.015	–
101.3 kPa, x2 = 0.1675	1.925 ± 0.045	1.606 ± 0.038	1.359 ± 0.032	1.158 ± 0.028
101.3 kPa, x2 = 0.3117	1.187 ± 0.029	1.035 ± 0.026	0.909 ± 0.023	0.805 ± 0.021
101.3 kPa, x2 = 0.4368	0.863 ± 0.022	0.756 ± 0.02	0.68 ± 0.018	0.615 ± 0.016
101.3 kPa, x2 = 0.5471	0.66 ± 0.017	0.604 ± 0.016	0.553 ± 0.015	0.509 ± 0.014
101.3 kPa, x2 = 0.6446	0.552 ± 0.015	0.511 ± 0.014	0.474 ± 0.013	0.442 ± 0.013
101.3 kPa, x2 = 0.73	0.476 ± 0.013	0.446 ± 0.013	0.418 ± 0.012	0.394 ± 0.012
101.3 kPa, x2 = 0.8084	0.428 ± 0.012	0.404 ± 0.012	0.382 ± 0.011	0.362 ± 0.011
101.3 kPa, x2 = 0.8784	0.394 ± 0.012	0.375 ± 0.011	0.357 ± 0.011	0.34 ± 0.011
101.3 kPa, x2 = 0.9421	0.376 ± 0.011	0.359 ± 0.011	0.342 ± 0.011	0.33 ± 0.01
